Assays:
[1] = test system: C57BL/6 female mice; assay: In vivo test of toxicity of the compounds (body weight, appearance)
Procedure: In the animal experiments, C57BL/6 female mice (control group 4 mice, test group (dose group) 4 mice) obtained from Central Lab. Animal Inc. were used. The experimental animals were acclimated by breeding them at the place established with temperature 23 ±3° C., relative humidity 50 ±10%, lighting time 12 hours (6 a.m.-6 p.m.), number of ventilation 10-20 times/hour, and illuminance 150-300 Lux, for one week. All the testers who evaluated the activity in animals worn high-pressure steam sterilized (121° C., 20 minutes) working clothes, hood, mask and gloves, and conducted the experiment. During the periods of accommodation and quarantine the experimental animals were accommodated in a polycarbonate-made shoes box-type breeding cage (260W×410L×200H mm) by 4 mice in each cage. During the periods of administration and observation, the experimental animals were accommodated in a wire breeding cage (205W×350 L×175H mm) with one mouse in each cage. During the period of experiments, the breeding cages were discriminated with attaching the labels in which the experiment numbers and the animal numbers were entered. The animals were allowed to freely ingest a radiation-sterilized (25 kGy, Picolab) solid feed for experimental animals as the feed, and tap water, which was sterilized with an autoclave, as the drinking water by means of a water bottle. […]

[2] = test system: Respective cell lines; assay: Cytotoxicity assay (MTT); format: cell-based; conditions: 48 hours
Procedure: In testing the compounds in cell lines, if cells are killed due to a toxicity of the compounds at the treatment concentration, a significant result cannot be obtained. Therefore, the toxicity assay was conducted by treatment with the compounds as follows. Respective cell lines were maintained on 96-well cell culture plate in the medium comprising 10% FBS with 1% Penicillin G/streptomycin, and then incubated under 37° C., 5% CO2 condition. All the experiments were repeated three times. The samples were properly diluted, and then cells were treated with the diluted samples at the concentrations of 1, 3, 10, 30, 100 μg/ml. After 48 hours, 10% (v/v) 5 mg/mL 3-(4,5-dimethylthiazol-2-yl)-2,5-diphenyltetrazolium bromide (MTT; Sigma) was added to the cell culture. After 3 hours of the incubation, the medium was aspirated and washed with PBS. After adding DMSO (100 μl), the mixture was gently agitated for 5 minutes. The absorbance was measured at 570 nm by means of VERSA max microplate reader (Molecular Devices Inc.), and the average absorbance (±SE) values as obtained from three experiments were compared with t-test, a statistical significance of P<0.05. When Compounds 1 and 3 were used at the concentrations of 1, 3, 10, 30, 100 μg/ml, the survival rates of cells were 94, 76, 70, 67, 30%, respectively, by the treatment with Compound 1, and 74, 71, 65, 57, 19%, respectively, by the treatment with Compound 3. It means that at least 50% of cells survive at the concentration (for example, 30 μg/ml) of the compounds of the present invention for measuring IL-6 inhibitory activity.

[3] = test system: IL-6 induced ERK phosphorylation; assay: Test for inhibitory activity against ERK phosphorylation induced by IL-6 (Western blot, HepG2); format: cell-based, human; conditions: HepG2, 30 μg/ml (FIG. 5)
Procedure: HepG2 cell was divisionally inoculated in 6-well plate, and then starved for 18 hours.
The starved cells were treated with the samples for one hour, and then stimulated with IL-6 or LIF (Upstate Biotechnology, USA) for 10 minutes. The specimen was treated with 5× cell lysis buffer (Promega) sometimes with vortexing under ice for 30 minutes. The cell lysate obtained as described under B in Experiment 1 (3) was dissolved in 8% SDS-PAGE gel, and transferred to the nitrocellulose membrane. This membrane was blocked with Tris-buffered solution (50 mM Tris-HCl (pH 7.4), 150 mM NaCl, 0.1% Tween 20) containing 5% non-fat dry milk at 4° C. Then, it was incubated together with an appropriate primary antibody (ERK) present in Tris-buffered solution (50 mM Tris-HCl (pH 7.4), 150 mM NaCl, 0.1% Tween 20) containing 5% non-fat dry milk, at room temperature for 1-2 hours. This membrane was washed five times with TBS buffer solution for 10 minutes, and incubated with 1:6000 diluted horseradish peroxidase-conjugated secondary antibodies for one hour. The membrane was washed 10 times with TBS buffer solution, and then mixed and incubated with the 1:1 mixture of HRP Substrate Luminol Reagent and HRP Substrate Peroxide Solution as ELC reagent (Millipore Corp. Ma USA). The chemiluminescent signals were visualized with X-ray film.

[4] = test system: Zymosan A-induced paw inflammation in C57BL/6 mice; assay: Zymosan A-induced paw inflammation, effect of alleviating the inflammation; format: in vivo, mouse; conditions: for Difference between the thicknesses of the right paw and left paw: Zymosan and 30 mg/kg Compound 3 into right paw
Procedure: For this experiment, C57BL/6 mice were obtained from Central Lab. Animal Inc., and acclimated for one week and then used in the experiment. The gender of animals used in the experiment was female, and 4 mice were used in each of the control group and the test group (Doe group). To experiment Compound 3's effect of alleviating the inflammation, the thicknesses of paws having the inflammation is reduced by injecting 3 mg of Zymosan A and 30 mg/kg of Compound 3 into right paws of the experimental animals, and both the paw thicknesses in the control group to which Zymosan A was administered to induce the inflammation and the control group having no treatment were measured every day, and the results are as shown in FIG. 7.
When the paw thickness was measured every day after inducing the inflammatory reaction by Zymosan, a difference between the thicknesses of the right paw and left paw was 8.5, 7.0, 6.5, 5.5, 5.6 mm. It could be identified that by treatment with Zymosan and Compound 3 the inflammatory reaction was alleviated so that a difference between paw thicknesses was 6.0, 3.0, 2.0, 1.9, 1.8 mm. A difference between paw thicknesses could also be identified in real photographs of the group treated only with Zymosan, the test group treated with Zymosan and Compound 3, and the control group having no treatment of the experimental animals on the 6th day in the inflammation alleviating assay (FIG. 8).

CCc1ccc(Nc2nc3cc(NC(=O)c4ccccc4)ccc3o2)cc1 [Compound 3, N-(2-(4-ethylphenylamino)benzo[d]oxazol-5-yl)benzamide]
Change in body weight compared to the control group ([1]; 30 mg/kg intraperitoneally once a day, 5 days, C57BL/6 female mice (FIG. 6)): did not show any change in the weight | Toxic symptom in appearance ([1]; after 6 days, C57BL/6 female mice): did not show any toxic symptom in appearance | Survival rate of cells ([2]; 1 μg/ml): 74% | Survival rate of cells ([2]; 3 μg/ml): 71% | Survival rate of cells ([2]; 10 μg/ml): 65% | Survival rate of cells ([2]; 30 μg/ml): 57% | Survival rate of cells ([2]; 100 μg/ml): 19% | Influence on IL-6 induced ERK phosphorylation [3]: did not influence on ERK phosphorylation | Effect of alleviating the inflammation ([4]; 30 mg/kg, Zymosan A-induced paw inflammation (FIGS. 7, 8)): exhibited the effect of alleviating the inflammation | Difference between the thicknesses of the right paw and left paw ([4]; 1st daily measurement): 6.0 mm | Difference between the thicknesses of the right paw and left paw ([4]; 2nd daily measurement): 3.0 mm | Difference between the thicknesses of the right paw and left paw ([4]; 3rd daily measurement): 2.0 mm | Difference between the thicknesses of the right paw and left paw ([4]; 4th daily measurement): 1.9 mm | Difference between the thicknesses of the right paw and left paw ([4]; 5th daily measurement): 1.8 mm
